Assay results reported in patent publication US8889671B2, “Compounds and methods for treating bacterial infections” (AstraZeneca AB, priority 2013, dated 2014).
Converted amounts (≈) assume the structure as drawn. Read-outs that look alike come from different tables or passages of the source.

Legend:
Staphylococcus aureus = assay: Susceptibility testing (MIC) Assay 1, broth microdilution; type: cell-based; conditions: Staphylococcus aureus
Method: (§1) Minimum Inhibitory Concentrations (MICs) were determined by the broth microdilution method in accordance with the Clinical and Laboratory Standards Institute (CLSI) guidelines. In brief, organism suspensions were adjusted to a 0.5 McFarland standard to yield a final inoculum between 3×10^5 and 7×10^5 colony-forming units (CFU)/mL. Bacterial inocula were prepared for most organisms in sterile, cation adjusted Mueller-Hinton Broth (Beckton Dickinson). The streptococci were prepared as above in cation adjusted Mueller-Hinton Broth to which 2.5% lysed horse blood (Hema Resource & Supply Inc.) was added. An inoculum volume of 100 μL was added to wells (using a Tecan EVO robot) containing 2 μL of DMSO containing 2-fold serial dilutions of drug. All inoculated microdilution trays were incubated in ambient air at 35° C. for 18-24 hours. Following incubation, the lowest concentration of the drug that prevented visible growth as read at OD600 nm and confirmed by a visual read using a test reading mirror was recorded as the MIC. Performance of the assay was monitored by the use of laboratory quality-control strains and commercially available control compounds with defined MIC spectrums, in accordance with CLSI guidelines. Table 1 provides the MIC results (μM) of Examples 1-77 tested in Assay 1. Table 2 provides the MIC (μg/mL) results of Examples 78-80 tested in Assay 1.

Streptococcus pneumoniae = assay: as above; type: cell-based
Method: as §1

Streptococcus pyogenes = assay: as above; type: cell-based; conditions: Streptococcus pyogenes, Streptococcus pyrgenes, in vivo strain; read-out: Spy MIC
Method: as §1

Escherichia coli = assay: Susceptibility testing (MIC) Assay 2, broth microdilution; type: cell-based; conditions: K12, read-out: Eco MIC
Method: (§2) Minimum Inhibitory Concentrations (MICs) were determined by the broth microdilution method in accordance with the Clinical and Laboratory Standards Institute (CLSI) guidelines. In brief, organism suspensions were adjusted to a 0.5 McFarland standard to yield a final inoculum between 3×10^5 and 7×10^5 colony-forming units (CFU)/mL. Bacterial inocula were generally prepared in sterile, cation adjusted Mueller-Hinton Broth (Becton Dickinson) which included Escherichia coli, Klebsiella pneumoniae, and Pseudomonas aeruginosa. Haemophilus influenzae bacterial inocula were prepared in sterile, cation adjusted Mueller-Hinton Broth (Becton Dickinson) containing 0.5% yeast extract (Becton Dickinson) plus 30 mL of 15 μg/mL Bovine Hematin stock (Sigma), and 3 mL of 15 μg/mL β-nicotinamide adenine dinucleotide (Sigma). Strains of Neisseria were tested for MICs using agar dilution methodology in accordance with CLSI guidelines. For broth microdilution testing, an inoculum volume of 100 μL was added to wells (using a Tecan EVO robot) containing 2 μL of DMSO containing 2-fold serial dilutions of drug. All inoculated microdilution panels were incubated in ambient air at 35° C. for 18-24 hours. Following incubation, the lowest concentration of the drug that prevented visible growth as read at OD600 nm and confirmed by a visual read using a test reading mirror was recorded as the MIC. Performance of the assay was monitored by the use of laboratory quality-control strains and commercially available control compounds with defined MIC spectrums, in accordance with CLSI guidelines. Table 3 provides the MIC results (μM) of Examples 1-77 tested in Assay 2. Table 4 provides the MIC (μg/mL) results of Examples 78-80 tested in Assay 2.

Haemophilus influenzae = assay: as above; type: cell-based; conditions: ATCC51907, Haemophilus influenzae, ATCC 51907, in vivo strain, read-out: Hin MIC
Method: as §2

Klebsiella pneumoniae = assay: as above; type: cell-based; conditions: clinical isolate, mucoid, read-out: Kpn MIC
Method: as §2

Pseudomonas aeruginosa = assay: as above; type: cell-based; conditions: PAO1, read-out: Pae MIC
Method: as §2

[1] = biological target: Escherichia coli DNA gyrase A/B tetramer (Escherichia coli (strain K12), UniProt P0AES4+P0AES6); assay: DNA gyrase supercoiling activity fluorescence polarisation assay; type: biochemical; conditions: Eco Gyr FP Mean IC50, E. coli DNA gyrase supercoiling, 0.3 mM ATP
Method: In a black, 384-well polystyrene assay plate, 30 microliters/well of 5 nM Escherichia coli DNA gyrase A/B tetramer and 130 micrograms/mL of topologically relaxed plasmid containing the triplex-forming sequence
in an assay buffer consisting of 35 mM Tris-HCl (pH 7.5), 24 mM KCl, 4 mM MgCl2, 2 mM dithiothreitol, 1.8 mM spermidine, 5% (v/v) glycerol, 200 nM bovine serum albumin, 0.8% dimethylsulfoxide, and 0.3 mM ATP were incubated at ambient temperature for (typically 30 minutes) in the absence or presence of 5-10 different concentrations of test compound. The supercoiling reactions were quenched by the addition of 10 microliters/well of 40 nM oligodeoxynucleotide probe in 3× triplex-forming buffer consisting of 150 mM NaCl, and 150 mM sodium acetate at pH 3.5. The oligodeoxynucleotide probe was 5′-BODIPY-FL-labeled
After 60 minutes, the fluorescence anisotropy of the BODIPY-FL was measured in a Tecan Ultra plate reader, using 485 nm excitation and 535 nm emission filters equipped with polarizers. The IC50 was determined by nonlinear regression using two control reactions.

[2] = Staphylococcus aureus in vivo strain, MSQS, read-out: Sau(d) MIC
[3] = in vivo strain, MRQR, read-out: Sau(e) MIC
[4] = in vivo strain (footnote b), read-out: Spn(b) MIC
[5] = in vivo strain (footnote c), read-out: Spn(c) MIC

| SMILES | MIC (Staphylococcus aureus; [2]) | MIC (Staphylococcus aureus; [3]) | MIC (Staphylococcus aureus; serum, read-out: Sau(f) MIC) | MIC (Streptococcus pneumoniae; [4]) | MIC (Streptococcus pneumoniae; [5]) | MIC (Streptococcus pyogenes) | MIC (Escherichia coli) | MIC (Haemophilus influenzae) | MIC (Klebsiella pneumoniae) | MIC (Pseudomonas aeruginosa) | IC50 [1] |
| --- | --- | --- | --- | --- | --- | --- | --- | --- | --- | --- | --- |
| C[C@@H]1CN2c3c(cc4c(N5C(=O)OC[C@@H]5c5ccccc5)noc4c3F)CC3(C(=O)NC(=O)NC3=O)[C@H]2[C@H](C)O1 [Example 9, (2R,4S,4aS)-11-Fluoro-2,4-dimethyl-8-[(4S)-2-oxo-4-phenyl-1,3-oxazolidin-3-yl]-1,2,4,4a-tetrahydro-2′H,6H-spiro[1,4-oxazino[4,3-a][1,2]oxazolo[4,5-g]quinoline-5,5′-pyrimidine]-2′,4′,6′(1′H,3′H)-trione] | 0.78 µM (≈ 0.429 µg/mL) | 0.78 µM (≈ 0.429 µg/mL) | 12 µM (≈ 6.59 µg/mL) | 1.6 µM (≈ 0.879 µg/mL) | 1.6 µM (≈ 0.879 µg/mL) | 0.78 µM (≈ 0.429 µg/mL) | 50 µM (≈ 27.5 µg/mL) | 0.39 µM (≈ 0.214 µg/mL) | > 200 µM | > 200 µM | 710 nM |
| C[C@@H]1CN2c3c(cc4c(N5C(=O)OC[C@H]5Cc5ccccc5)noc4c3F)CC3(C(=O)NC(=O)NC3=O)[C@H]2[C@H](C)O1 [Example 10, (2R,4S,4aS)-8-[(4R)-4-Benzyl-2-oxo-1,3-oxazolidin-3-yl]-11-fluoro-2,4-dimethyl-1,2,4,4a-tetrahydro-2′H,6H-spiro[1,4-oxazino[4,3-a][1,2]oxazolo[4,5-g]quinoline-5,5′-pyrimidine]-2′,4′,6′(1′H,3′H)-trione] | 6.2 µM (≈ 3.49 µg/mL) | 12 µM (≈ 6.76 µg/mL) | 200 µM (≈ 113 µg/mL) | 50 µM (≈ 28.2 µg/mL) | 50 µM (≈ 28.2 µg/mL) | 25 µM (≈ 14.1 µg/mL) | > 200 µM | 25 µM (≈ 14.1 µg/mL) | > 200 µM | > 200 µM | 6700 nM |
| C[C@@H]1CN2c3c(cc4c(N5C(=O)OC[C@@H]5Cc5ccccc5)noc4c3F)CC3(C(=O)NC(=O)NC3=O)[C@H]2[C@H](C)O1 [Example 11, (2R,4S,4aS)-8-[(4S)-4-Benzyl-2-oxo-1,3-oxazolidin-3-yl]-11-fluoro-2,4-dimethyl-1,2,4,4a-tetrahydro-2′H,6H-spiro[1,4-oxazino[4,3-a][1,2]oxazolo[4,5-g]quinoline-5,5′-pyrimidine]-2′,4′,6′(1′H,3′H)-trione] | 1.6 µM (≈ 0.902 µg/mL) | 1.6 µM (≈ 0.902 µg/mL) | 25 µM (≈ 14.1 µg/mL) | 3.1 µM (≈ 1.75 µg/mL) | 3.1 µM (≈ 1.75 µg/mL) | 3.1 µM (≈ 1.75 µg/mL) | 50 µM (≈ 28.2 µg/mL) | 3.1 µM (≈ 1.75 µg/mL) | > 200 µM | > 200 µM | 1200 nM |
| CC[C@H]1CN(c2noc3c(F)c4c(cc23)CC2(C(=O)NC(=O)NC2=O)[C@H]2[C@H](C)O[C@H](C)CN42)C(=O)O1 [Example 13, (2R,4S,4aS)-8-[(5S)-5-Ethyl-2-oxo-1,3-oxazolidin-3-yl]-11-fluoro-2,4-dimethyl-1,2,4,4a-tetrahydro-2′H,6H-spiro[1,4-oxazino[4,3-a][1,2]oxazolo[4,5-g]quinoline-5,5′-pyrimidine]-2′,4′,6′(1′H,3′H)-trione] | 0.39 µM (≈ 0.196 µg/mL) | 0.78 µM (≈ 0.391 µg/mL) | 0.78 µM (≈ 0.391 µg/mL) | 0.78 µM (≈ 0.391 µg/mL) | 0.78 µM (≈ 0.391 µg/mL) | 0.39 µM (≈ 0.196 µg/mL) | 12 µM (≈ 6.02 µg/mL) | 0.78 µM (≈ 0.391 µg/mL) | 200 µM (≈ 100 µg/mL) | > 200 µM | 510 nM |
| CC[C@@H]1CN(c2noc3c(F)c4c(cc23)CC2(C(=O)NC(=O)NC2=O)[C@H]2[C@H](C)O[C@H](C)CN42)C(=O)O1 [Example 14, (2R,4S,4aS)-8-[(5R)-5-Ethyl-2-oxo-1,3-oxazolidin-3-yl]-11-fluoro-2,4-dimethyl-1,2,4,4a-tetrahydro-2′H,6H-spiro[1,4-oxazino[4,3-a][1,2]oxazolo[4,5-g]quinoline-5,5′-pyrimidine]-2′,4′,6′(1′H,3′H)-trione] | 0.39 µM (≈ 0.196 µg/mL) | 0.78 µM (≈ 0.391 µg/mL) | 1.6 µM (≈ 0.802 µg/mL) | 0.78 µM (≈ 0.391 µg/mL) | 0.78 µM (≈ 0.391 µg/mL) | 0.78 µM (≈ 0.391 µg/mL) | 25 µM (≈ 12.5 µg/mL) | 0.78 µM (≈ 0.391 µg/mL) | 200 µM (≈ 100 µg/mL) | > 200 µM | 570 nM |
| C[C@@H]1CN2c3c(cc4c(N5C(=O)OC[C@@H]5CF)noc4c3F)CC3(C(=O)NC(=O)NC3=O)[C@H]2[C@H](C)O1 [Example 15, (2R,4S,4aS)-11-Fluoro-8-[(4R)-4-(fluoromethyl)-2-oxo-1,3-oxazolidin-3-yl]-2,4-dimethyl-1,2,4,4a-tetrahydro-2′H,6H-spiro[1,4-oxazino[4,3-a][1,2]oxazolo[4,5-g]quinoline-5,5′-pyrimidine]-2′,4′,6′(1′H,3′H)-trione] | 0.28 µM (≈ 0.142 µg/mL) | 0.78 µM (≈ 0.394 µg/mL) | 0.39 µM (≈ 0.197 µg/mL) | 0.28 µM (≈ 0.142 µg/mL) | 0.39 µM (≈ 0.197 µg/mL) | < 0.2 µM | 12 µM (≈ 6.07 µg/mL) | < 0.2 µM | > 200 µM | > 200 µM | 130 nM |
| C[C@@H]1CN2c3c(cc4c(N5C(=O)OC[C@H]5CF)noc4c3F)CC3(C(=O)NC(=O)NC3=O)[C@H]2[C@H](C)O1 [Example 16, (2R,4S,4aS)-11-Fluoro-8-[(4S)-4-(fluoromethyl)-2-oxo-1,3-oxazolidin-3-yl]-2,4-dimethyl-1,2,4,4a-tetrahydro-2′H,6H-spiro[1,4-oxazino[4,3-a][1,2]oxazolo[4,5-g]quinoline-5,5′-pyrimidine]-2′,4′,6′(1′H,3′H)-trione] | 0.39 µM (≈ 0.197 µg/mL) | 1.6 µM (≈ 0.809 µg/mL) | 1.6 µM (≈ 0.809 µg/mL) | 0.39 µM (≈ 0.197 µg/mL) | 0.39 µM (≈ 0.197 µg/mL) | 0.39 µM (≈ 0.197 µg/mL) | 25 µM (≈ 12.6 µg/mL) | 0.78 µM (≈ 0.394 µg/mL) | 200 µM (≈ 101 µg/mL) | > 200 µM | 190 nM |
| COC[C@@H]1COC(=O)N1c1noc2c(F)c3c(cc12)CC1(C(=O)NC(=O)NC1=O)[C@H]1[C@H](C)O[C@H](C)CN31 [Example 18, (2R,4S,4aS)-11-fluoro-8-[(4R)-4-(methoxymethyl)-2-oxo-1,3-oxazolidin-3-yl]-2,4-dimethyl-1,2,4,4a-tetrahydro-2′H,6H-spiro[1,4-oxazino[4,3-a][1,2]oxazolo[4,5-g]quinoline-5,5′-pyrimidine]-2′,4′,6′(1′H,3′H)-trione] | 3.1 µM (≈ 1.6 µg/mL) | 6.2 µM (≈ 3.21 µg/mL) | 12 µM (≈ 6.21 µg/mL) | 3.1 µM (≈ 1.6 µg/mL) | 6.2 µM (≈ 3.21 µg/mL) | 12 µM (≈ 6.21 µg/mL) | > 200 µM | 3.1 µM (≈ 1.6 µg/mL) | > 200 µM | > 200 µM | 810 nM |
| C[C@@H]1CN2c3c(cc4c(N5C[C@@H](CF)OC5=O)noc4c3F)CC3(C(=O)NC(=O)NC3=O)[C@H]2[C@H](C)O1 [Example 19] | 0.14 µM (≈ 0.0708 µg/mL) | 0.78 µM (≈ 0.394 µg/mL) | 0.28 µM (≈ 0.142 µg/mL) | < 0.2 µM | 0.24 µM (≈ 0.121 µg/mL) | < 0.2 µM | 8.8 µM (≈ 4.45 µg/mL) | 0.28 µM (≈ 0.142 µg/mL) | 200 µM (≈ 101 µg/mL) | > 200 µM | 160 nM |
| COC[C@@H]1CN(c2noc3c(Cl)c4c(cc23)CC2(C(=O)NC(=O)NC2=O)[C@H]2[C@H](C)O[C@H](C)CN42)C(=O)O1 [Example 20] | 0.28 µM (≈ 0.149 µg/mL) | 1.1 µM (≈ 0.587 µg/mL) | 0.39 µM (≈ 0.208 µg/mL) | 0.28 µM (≈ 0.149 µg/mL) | 0.28 µM (≈ 0.149 µg/mL) | 0.28 µM (≈ 0.149 µg/mL) | 25 µM (≈ 13.3 µg/mL) | 0.39 µM (≈ 0.208 µg/mL) | > 200 µM | > 200 µM | 420 nM |
